Experimental data: patent US3995062A, “Halocyclopropyl halomethyl ethers” (priority 1975, dated 1976)

System: Mice
Test: Standard test for evaluation of inhalation anesthetics (mice in rotating drum; AC50, LC50, anesthetic index)
Format: in vivo
Details: 10 minutes exposure; for Anesthetic index AI (LC50/AC50): calculated from LC50 and AC50; for AC50 (minimum concentration required to anesthetize 50% of the mice) / LC50 (minimum concentration required to kill 50% of the mice): when two figures are given, the actual parameter lies between them
Method: Mice were exposed to the anesthetic for a period of 10 minutes in a rotating drum. Observations were then made of the pinch reflex, the corneal reflex and the return of the righting reflex. At least four graded doses were employed to determine the minimum concentration required to anesthetize 50% of the mice used (AC50) and the minimum concentration required to kill 50% of the mice (LC50). The anesthetic index (AI) was then calculated from these minimum concentrations.

For FC(F)OC1(F)C(F)(F)C1(F)Cl (stereo not drawn) [Example 7, 1-chloro-2-difluoromethoxy-1,2,3,3-tetrafluorocyclopropane], the “Anesthetic index AI (LC50/AC50)” value was > 1, the “AC50 (minimum concentration required to anesthetize 50% of the mice)” value was 2-10 % volume and the “LC50 (minimum concentration required to kill 50% of the mice)” value was > 10 % volume.
For FC(Cl)OC1(F)C(F)(F)C1(F)Cl (stereo not drawn) [Example 8, 1-chloro-2-chlorofluoromethoxy-1,2,3,3-tetrafluorocyclopropane], the “Anesthetic index AI (LC50/AC50)” value was 4-5, the “AC50 (minimum concentration required to anesthetize 50% of the mice)” value was 2 % volume and the “LC50 (minimum concentration required to kill 50% of the mice)” value was 8-10 % volume.
For FC(F)OC1(F)C(F)(F)C1(F)Br (stereo not drawn) [Example 9, 1-bromo-2-difluoromethoxy-1,2,3,3-tetrafluorocyclopropane], the “Anesthetic index AI (LC50/AC50)” value was > 4, the “AC50 (minimum concentration required to anesthetize 50% of the mice)” value was 1 % volume and the “LC50 (minimum concentration required to kill 50% of the mice)” value was > 4 % volume.
FC(Cl)OC1(F)C(F)(F)C1(F)Br (stereo not drawn) [Example 10, 1-bromo-2-chlorofluoromethoxy-1,2,3,3-tetrafluorocyclopropane] was tested, and the “Anesthetic index AI (LC50/AC50)” value was ~ 2, the “AC50 (minimum concentration required to anesthetize 50% of the mice)” value was 2-4 % volume and the “LC50 (minimum concentration required to kill 50% of the mice)” value was 6-8 % volume.
